Drawing on patent US11083199B2, “Heterocycle derivatives as pesticides” (Bayer Aktiengesellschaft, priority 2017, dated 2021), this text covers pest or weed control and efficacy for 13 compounds.

Holding throughout (type): in vivo
The test system of test [1] is Ctenocephalides felis. Description: Ctenocephalides felis in vitro contact test with adult cat fleas. The settings on record: application rate 5 μg/cm^2 (=500 g/ha), adult cat fleas dead or moribund after 48 h, read-out: efficacy. The method, then: For the coating of the test tubes, 9 mg of active ingredient are first dissolved in 1 ml of acetone p.a. and then diluted to the desired concentration with acetone p.a. 250 μl of the solution are distributed homogeneously on the inner walls and the base of a 25 ml glass tube by turning and rocking on an orbital shaker (rocking rotation at 30 rpm for 2 h). With 900 ppm of active ingredient solution and internal surface area 44.7 cm^2, given homogeneous distribution, an area-based dose of 5 μg/cm^2 is achieved. After the solvent has evaporated off, the tubes are populated with 5-10 adult cat fleas (Ctenocephalides felis), sealed with a perforated plastic lid and incubated in a horizontal position at room temperature and ambient humidity. After 48 h, efficacy is determined. To this end, the tubes are stood upright and the fleas are knocked to the base of the tube. Fleas which remain motionless at the base or move in an uncoordinated manner are considered to be dead or moribund. […] 100% efficacy means that all the fleas were dead or moribund. 0% efficacy means that no fleas were harmed.

For test [2], the system named is Ctenocephalides felis. Description: Ctenocephalides felis oral test. The settings on record: 48 h, application rate 100 ppm in citrated cattle blood, kill after 2 days, read-out: efficacy. The method, then: Solvent: dimethyl sulfoxide To produce a suitable active ingredient formulation, 10 mg of active ingredient are mixed with 0.5 ml of dimethyl sulfoxide. Dilution with citrated cattle blood gives the desired concentration. About 20 unfed adult cat fleas (Ctenocephalides felis) are placed into a chamber which is closed at the top and bottom with gauze. A metal cylinder whose bottom end is closed with parafilm is placed onto the chamber. The cylinder contains the blood/active ingredient formulation, which can be imbibed by the fleas through the parafilm membrane. After 2 days, the kill in % is determined. 100% means that all of the fleas have been killed; 0% means that none of the fleas have been killed.

Another test concerns Lucilia cuprina. The test can be described thus: Lucilia cuprina test. The settings on record: 48 h, application rate 100 ppm, L1 larvae, kill after 2 days, read-out: efficacy. Here is the method:
Solvent: dimethyl sulfoxide To produce a suitable active ingredient formulation, 10 mg of active ingredient are mixed with 0.5 ml of dimethyl sulfoxide, and the concentrate is diluted with water to the desired concentration. About 20 L1 larvae of the Australian sheep blowfly (Lucilia cuprina) are transferred into a test vessel containing minced horsemeat and the active ingredient formulation of the desired concentration. After 2 days, the kill in % is determined. 100% means that all the larvae have been killed; 0% means that no larvae have been killed.

The subject of a further test is Musca domestica. The test can be described thus: Musca domestica test. To be noted: application rate 100 ppm; adult houseflies, kill after 2 days. The method, then:
Solvent: dimethyl sulfoxide To produce a suitable active ingredient formulation, 10 mg of active ingredient are mixed with 0.5 ml of dimethyl sulfoxide, and the concentrate is diluted with water to the desired concentration. Vessels containing a sponge treated with sugar solution and the desired concentration of active ingredient formulation are populated with 10 adult houseflies (Musca domestica). After 2 days, the kill in % is determined. 100% means that all of the flies have been killed; 0% means that none of the flies have been killed.

Test [3] deals with Myzus persicae. Description: Myzus persicae oral test. The settings on record: 120 h, application rate 4 ppm, after 5 days, read-out: efficacy. The procedure, abridged: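 Compound formulation diluted with IPL41 insect medium (33%+15% sugar) and sealed under parafilm; mixed-population aphids feed through the membrane from a second plate. Mortality scored after 5 days as % efficacy (100% = all aphids killed, 0% = none).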

Test [4] has as its system Myzus persicae. The test can be described thus: Myzus persicae spray test. The settings on record: foliar, 120 h, application rate 100 g/ha, Chinese cabbage leaf discs, after 5 days, read-out: efficacy. The procedure, abridged: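 Chinese cabbage leaf discs infested with all aphid stages sprayed with compound formulated in emulsifier-containing water (1000 ppm emulsifier). Efficacy (% aphids killed; 100% = all killed) determined after 5 days.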

The test system of another test is Phaedon cochleariae. The test can be described thus: Phaedon cochleariae spray test. The settings on record: 168 h, application rate 100 g/ha, larvae, after 7 days, read-out: efficacy. The essentials:
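Chinese cabbage leaf discs sprayed with compound formulated in solvent and water containing 1000 ppm emulsifier. Once dry, discs were populated with mustard beetle larvae. Percent kill scored after 7 days, 100% meaning all larvae dead and 0% none.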

A further test relates to Spodoptera frugiperda. The test can be described thus: Spodoptera frugiperda spray test. The settings on record: foliar, 168 h, application rate 100 g/ha, maize leaf discs, caterpillars, after 7 days, read-out: efficacy. The procedure, abridged:
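Maize leaf discs sprayed with compound formulated in solvent plus water with 1000 ppm emulsifier, dried, then infested with fall armyworm caterpillars. Mortality scored after 7 days as % efficacy (100% = all caterpillars killed, 0% = none).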

Another test has as its system Tetranychus urticae. The test can be described thus: Tetranychus urticae spray test, OP-resistant. The settings on record: foliar, 144 h, bean leaf discs, after 6 days, read-out: efficacy. Here is the method: [table] To produce a suitable active ingredient formulation, 1 part by weight of active ingredient is dissolved with the specified parts by weight of solvent and made up to the desired concentration with water containing an emulsifier concentration of 1000 ppm. To produce further test concentrations, the formulation is diluted with emulsifier-containing water. Discs of bean leaves (Phaseolus vulgaris) infested with all stages of the greenhouse red spider mite (Tetranychus urticae) are sprayed with an active ingredient formulation of the desired concentration. After 6 days, the efficacy in % is determined. 100% means that all the spider mites have been killed; 0% means that no spider mites have been killed.

Take `CCS(=O)(=O)c1c(-c2nc3cc(C(F)(F)F)ncc3n2C)nc(-c2cncc(F)c2)n1C` [Example I-018]: in the test with Ctenocephalides felis [1], the pest or weed control at 5 µg/cm2, 500 g/ha was determined as 100%. For the same compound, the pest or weed control at 100 ppm in the test with Ctenocephalides felis [2] and in the test on Lucilia cuprina was 100% each time. This compound came in with an efficacy in the test on Musca domestica of 80%. For the same compound, the pest or weed control at 4 ppm in the test on Myzus persicae [3] came to 100%. The figures for the pest or weed control at 100 g/ha with Myzus persicae [4], with Phaedon cochleariae and in the test on Spodoptera frugiperda were 100%, 100% and 83%, respectively.

With `CCS(=O)(=O)c1c(-c2nc3cc(C(F)(F)F)ncc3n2C)nc(-c2ccn[nH]2)n1C` [Example I-049], the pest or weed control at 100 ppm in the test on Ctenocephalides felis [2] stood at 80%; in the test with Lucilia cuprina, 100%. Also, in the test with Musca domestica, the efficacy stood at 80%. In the test with Myzus persicae [3], the pest or weed control at 4 ppm is 100%. The results for the pest or weed control at 100 g/ha in the test on Myzus persicae [4], with Phaedon cochleariae and in the test with Tetranychus urticae (application rate 100 g/ha) were 90%, 100% and 90%, respectively. Besides, the pest or weed control at 20 g/ha with Tetranychus urticae (application rate 20 g/ha) is 90%.

For `CCS(=O)(=O)c1c(-c2nc3cc(C(F)(F)F)ncc3n2C)nc(-c2ccc(Cl)cc2)n1C` [Example I-005], the pest or weed control at 5 µg/cm2, 500 g/ha in the test with Ctenocephalides felis [1] is 100%. Further, the pest or weed control at 100 ppm with Ctenocephalides felis [2] and in the test on Lucilia cuprina was 100% in each case. The same compound came in with an efficacy in the test with Musca domestica of 100%. Besides, the pest or weed control at 4 ppm in the test with Myzus persicae [3] turned out to be 100%. In addition, the pest or weed control at 100 g/ha in the test on Myzus persicae [4] is 90%; in the test on Phaedon cochleariae, 100%; with Spodoptera frugiperda, 100%.

As to `CCS(=O)(=O)c1c(-c2nc3cc(C(F)(F)F)ncc3n2C)nc(/C=C/C2CC2)n1C` [Example I-007, 2-{2-[(E)-2-Cyclopropylvinyl]-5-(ethylsulfonyl)-1-methyl-1H-imidazol-4-yl}-3-methyl-6-(trifluoromethyl)-3H-imidazo[4,5-c]pyridine], the pest or weed control at 5 µg/cm2, 500 g/ha in the test on Ctenocephalides felis [1] is 100%. Moreover, the values for the pest or weed control at 100 ppm with Ctenocephalides felis [2] and in the test with Lucilia cuprina were 95% and 100%, respectively. In addition, in the test on Myzus persicae [3], the pest or weed control at 4 ppm stood at 100%. The pest or weed control at 100 g/ha in the test on Myzus persicae [4] was found to be 90%; with Phaedon cochleariae, 100%; in the test on Spodoptera frugiperda, 100%.

Turning to `CCn1c(-c2ccccc2)nc(-c2nc3cc(C(F)(F)F)ncc3n2C)c1S(=O)(=O)CC` [Example I-009], in the test with Ctenocephalides felis [1], the pest or weed control at 5 µg/cm2, 500 g/ha was 100%. The pest or weed control at 100 ppm in the test on Ctenocephalides felis [2] was determined as 95%; in the test with Lucilia cuprina, 100%. The same compound displayed an efficacy with Musca domestica of 80%. Besides, in the test on Myzus persicae [3], the pest or weed control at 4 ppm was found to be 100%. Moreover, the pest or weed control at 100 g/ha in the test with Myzus persicae [4] was found to be 90%.

With `CCS(=O)(=O)c1c(-c2nc3cc(C(F)(F)F)ncc3n2C)nc(-c2cc(Cl)cs2)n1C` [Example I-033], the pest or weed control at 100 ppm in the test with Ctenocephalides felis [2] and in the test on Lucilia cuprina was 100% each time. This compound showed an efficacy with Musca domestica of 90%. Also, in the test on Myzus persicae [3], the pest or weed control at 4 ppm worked out at 100%. The pest or weed control at 100 g/ha worked out at 90% with Myzus persicae [4] and 100% with Spodoptera frugiperda.

As for `CCS(=O)(=O)c1c(-c2nc3cc(C(F)(F)F)ncc3n2C)nc(-c2ccncc2F)n1C` [Example I-022], the pest or weed control at 5 µg/cm2, 500 g/ha in the test on Ctenocephalides felis [1] is 100%. In addition, the pest or weed control at 100 ppm is 95% in the test with Ctenocephalides felis [2] and 100% in the test with Lucilia cuprina. In addition, the pest or weed control at 4 ppm with Myzus persicae [3] amounted to 100%. Also, the pest or weed control at 100 g/ha in the test on Myzus persicae [4] and in the test with Phaedon cochleariae was 100% in each case.

As to `CCn1c(Cl)nc(-c2nc3cc(C(F)(F)F)ncc3n2C)c1S(=O)(=O)CC` [Example I-011], the pest or weed control at 5 µg/cm2, 500 g/ha with Ctenocephalides felis [1] was determined as 100%. Moreover, the pest or weed control at 100 ppm in the test with Ctenocephalides felis [2] and in the test on Lucilia cuprina was 100% in each case. The pest or weed control at 4 ppm with Myzus persicae [3] was found to be 100%. Also, the pest or weed control at 100 g/ha in the test with Myzus persicae [4], in the test on Phaedon cochleariae and in the test with Spodoptera frugiperda was 100% each time.

For `CCS(=O)(=O)c1c(-c2nc3cc(C(F)(F)F)ncc3n2C)nc(-c2cccnc2F)n1C` [Example I-020], the pest or weed control at 5 µg/cm2, 500 g/ha with Ctenocephalides felis [1] came out at 100%. In addition, the pest or weed control at 100 ppm in the test on Ctenocephalides felis [2] and with Lucilia cuprina was 100% in each case. Also, the pest or weed control at 4 ppm with Myzus persicae [3] is 100%. The pest or weed control at 100 g/ha with Myzus persicae [4] was 100%; with Phaedon cochleariae, 100%; in the test on Spodoptera frugiperda it was 83%.

As to `CCS(=O)(=O)c1c(-c2nc3cc(C(F)(F)F)ncc3n2C)nc(-c2ccccn2)n1C` [Example I-013], the pest or weed control at 5 µg/cm2, 500 g/ha with Ctenocephalides felis [1] amounted to 100%. The pest or weed control at 100 ppm in the test on Ctenocephalides felis [2] and in the test with Lucilia cuprina was 100% each time. Besides, the pest or weed control at 4 ppm in the test on Myzus persicae [3] turned out to be 100%. For the same compound, the values for the pest or weed control at 100 g/ha with Myzus persicae [4] and in the test on Phaedon cochleariae were 90% and 100%, respectively.

With `CCS(=O)(=O)c1c(-c2nc3cc(C(F)(F)F)ncc3n2C)nc(-c2cccc(Cl)n2)n1C` [Example I-014, 2-[2-(6-Chloropyridin-2-yl)-5-(ethylsulfonyl)-1-methyl-1H-imidazol-4-yl]-3-methyl-6-(trifluoromethyl)-3H-imidazo[4,5-c]pyridine], in the test with Ctenocephalides felis [1], the pest or weed control at 5 µg/cm2, 500 g/ha is 100%. Further, the pest or weed control at 100 ppm in the test with Ctenocephalides felis [2] and with Lucilia cuprina was 100% each time. The efficacy with Musca domestica came to 80%. The pest or weed control at 4 ppm with Myzus persicae [3] turned out to be 100%. Moreover, the pest or weed control at 100 g/ha in the test with Myzus persicae [4], in the test with Phaedon cochleariae and in the test with Spodoptera frugiperda was 100% each time.

With `CCS(=O)(=O)c1c(-c2nc3cc(C(F)(F)F)ncc3n2C)nc(-c2ccc(Cl)cn2)n1C` [Example I-015], the pest or weed control at 5 µg/cm2, 500 g/ha in the test on Ctenocephalides felis [1] was determined as 100%. Also, the pest or weed control at 100 ppm with Ctenocephalides felis [2] and in the test with Lucilia cuprina was 100% each time. In addition, in the test with Myzus persicae [3], the pest or weed control at 4 ppm was found to be 100%. Also, the pest or weed control at 100 g/ha was determined as 90% in the test on Myzus persicae [4], 100% in the test with Phaedon cochleariae and 100% with Spodoptera frugiperda.

In the case of `CCS(=O)(=O)c1c(-c2nc3cc(C(F)(F)F)ncc3n2C)nc(-c2ccc(F)nc2)n1C` [Example I-019, 2-[5-(Ethylsulfonyl)-2-(6-fluoropyridin-3-yl)-1-methyl-1H-imidazol-4-yl]-3-methyl-6-(trifluoromethyl)-3H-imidazo[4,5-c]pyridine], in the test on Ctenocephalides felis [1], the pest or weed control at 5 µg/cm2, 500 g/ha stood at 100%. For the same compound, the pest or weed control at 100 ppm was determined as 95% with Ctenocephalides felis [2] and 100% in the test with Lucilia cuprina. In the test on Musca domestica, the efficacy turned out to be 100%. For the same compound, the pest or weed control at 4 ppm with Myzus persicae [3] was found to be 100%. The pest or weed control at 100 g/ha in the test with Myzus persicae [4], with Phaedon cochleariae and in the test with Spodoptera frugiperda was 100% throughout.
